According to patent US11717508B2, “Compounds, compositions, and methods for inhibiting bacterial growth” (priority 2016, dated 2023):
Several values for one entry are separate records, joined by “and”; a condition that tells them apart may be missing. Equal values may be shown once. Read-outs that look alike come from different tables or passages of the source.

Tested on: DosRST regulon
Type: cell-based

C[C@@H]1CC[C@H]2[C@@H](C)C(=O)O[C@@H]3O[C@]4(C)CC[C@@H]1[C@]32OO4 [HC101A, artemisinin, reference compound]
downregulation of tgs1 gene (transcriptional profiling) (CDC1551, 40 μM, 6 days): ~100 fold
Counts per million (CPM) WT_HC101A (gene MT0055): 35.17 CPM and 29.03 CPM
log2 Fold change (gene MT0055): −1.288
Counts per million (CPM) WT_HC101A (gene MT0062 (Rv0056 rp11)): 104.6 CPM and 99.67 CPM
log2 Fold change (gene MT0062 (Rv0056 rp11)): −1.059
log2 Fold change (gene MT0086 Rv0079): −1.314
Counts per million (CPM) WT_HC101A (gene MT0105 (Rv0096 PPE)): 8.529 CPM and 7.796 CPM
log2 Fold change (gene MT0105 (Rv0096 PPE)): −1.583
Counts per million (CPM) WT_HC101A (gene MT0106 (Rv0097)): 24.38 CPM and 21.53 CPM
log2 Fold change (gene MT0106 (Rv0097)): −1.646
Counts per million (CPM) WT_HC101A (gene MT0107 (Rv0098)): 11.7 CPM and 9.891 CPM
log2 Fold change (gene MT0107 (Rv0098)): −1.652
Counts per million (CPM) WT_HC101A (gene MT0108 (Rv0099 fadD10)): 39.35 CPM and 32.64 CPM
log2 Fold change (gene MT0108 (Rv0099 fadD10)): −1.057
Counts per million (CPM) WT_HC101A (gene MT0117): 157.5 CPM and 202.6 CPM
log2 Fold change (gene MT0117): −1.008
Counts per million (CPM) WT_HC101A (gene MT0122 (Rv0113 gmhA)): 36.48 CPM and 25.54 CPM
log2 Fold change (gene MT0122 (Rv0113 gmhA)): −1.031
Counts per million (CPM) WT_HC101A (gene MT0124): 5.295 CPM and 3.898 CPM
log2 Fold change (gene MT0124): −1.954
Counts per million (CPM) WT_HC101A (gene MT0175 (Rv0166 fadD5)): 67.07 CPM and 45.73 CPM
log2 Fold change (gene MT0175 (Rv0166 fadD5)): −1.959
Counts per million (CPM) WT_HC101A (gene MT0176): 118.5 CPM and 96.7 CPM
log2 Fold change (gene MT0176): −1.284
Counts per million (CPM) WT_HC101A (gene MT0178 (Rv0169 mcel)): 178.5 CPM and 133.6 CPM
log2 Fold change (gene MT0178 (Rv0169 mcel)): −1.664
log2 Fold change (gene MT0179 (Rv0170)): −1.755
log2 Fold change (gene MT0180 (Rv0171)): −1.645
log2 Fold change (gene MT0181 (Rv0172)): −1.502
log2 Fold change (gene MT0182 (Rv0173 IprK)): −1.638
log2 Fold change (gene MT0183 (Rv0174)): 1.264
log2 Fold change (gene MT0241 (Rv0231 fadE4)): −1.266
log2 Fold change (gene MT0244 (Rv0233 nrdB)): −1.533
log2 Fold change (gene MT0329 (Rv0315)): −1.589
log2 Fold change (gene MT0417): −1.313
log2 Fold change (gene MT0423 (Rv0410c pknG)): −1.948
log2 Fold change (gene MT0424 (Rv0411c glnH)): −1.654
log2 Fold change (gene MT0425 (Rv0412c)): −1.504
log2 Fold change (gene MT0429 (Rv0416)): −1.414
log2 Fold change (gene MT0434): −1.079
log2 Fold change (gene MT0524): −1.085
log2 Fold change (gene MT0595 Rv0569): −2.701
log2 Fold change (gene MT0596 Rv0570 nrdZ): −4.516
log2 Fold change (gene MT0597 Rv0571c): −2.001
log2 Fold change (gene MT0599 Rv0572c): −3.648
log2 Fold change (gene MT0600): −4.304
log2 Fold change (gene MT0601 Rv0573c): −2.988
log2 Fold change (gene MT0602 Rv0574c): −3.56
log2 Fold change (gene MT0637 (Rv0608)): −1.073
log2 Fold change (gene MT0735 (Rv0708 rplP)): −1.134
log2 Fold change (gene MT0736 (Rv0709 rpmC)): −1.065
log2 Fold change (gene MT0741): −1.181
log2 Fold change (gene MT0741.1 (Rv0715 rplX)): −1.23
log2 Fold change (gene MT0742.1 (Rv0717 rpsN)): −1.057
log2 Fold change (gene MT0747 (Rv0722 rpmD)): −1.393
log2 Fold change (gene MT0846 Rv0824c desA1): −1.662
log2 Fold change (gene MT0877 (Rv0854)): −1.066
log2 Fold change (gene MT0898): −3.3
log2 Fold change (gene MT0908 (Rv0885)): −1.929
log2 Fold change (gene MT0909 (Rv0886 fprB)): −1.498
log2 Fold change (gene MT0911 (Rv0888)): −2.361
log2 Fold change (gene MT1002 (Rv0974c accD2)): −1.787
log2 Fold change (gene MT1019 (Rv0990c)): −1.168
log2 Fold change (gene MT1020): −1.37
log2 Fold change (gene MT1056 (Rv1037c)): −1.377
log2 Fold change (gene MT1095 Rv1065): −1.172
Counts per million (CPM) WT_HC101A (gene MT1823 (Rv1773c)): 189.6 CPM and 111.2 CPM
log2 Fold change (gene MT1823 (Rv1773c)): −1.79
Counts per million (CPM) WT_HC101A (gene MT1840 (Rv1791 PE)): 169.4 CPM and 147.4 CPM
log2 Fold change (gene MT1840 (Rv1791 PE)): −1.118
Counts per million (CPM) WT_HC101A (gene MT1850 (Rv1812c)): 69.36 CPM and 114.1 CPM
log2 Fold change (gene MT1850 (Rv1812c)): −1.173
log2 Fold change (gene MT1851 Rv1813c): −4.29
Counts per million (CPM) WT_HC101A (gene MT1882 (Rv1834)): 28.5 CPM and 25.48 CPM
log2 Fold change (gene MT1882 (Rv1834)): −1.56
Counts per million (CPM) WT_HC101A (gene MT1932): 219.8 CPM and 285.7 CPM
log2 Fold change (gene MT1932): −1.182
Counts per million (CPM) WT_HC101A (gene MT1942): 74.52 CPM and 69.7 CPM
log2 Fold change (gene MT1942): −1.048
Counts per million (CPM) WT_HC101A (gene MT1943): 65.44 CPM and 61.15 CPM
log2 Fold change (gene MT1943): −1.048
Counts per million (CPM) WT_HC101A (gene MT1955 (Rv1904)): 88.58 CPM and 104.4 CPM
log2 Fold change (gene MT1955 (Rv1904)): −1.006
Counts per million (CPM) WT_HC101A (gene MT1959 (Rv1918c PPE)): 62.82 CPM and 65.51 CPM
log2 Fold change (gene MT1959 (Rv1918c PPE)): −1.121
Counts per million (CPM) WT_HC101A (gene MT1986 (Rv1936)): 47.53 CPM and 27.87 CPM
log2 Fold change (gene MT1986 (Rv1936)): −2.373
Counts per million (CPM) WT_HC101A (gene MT1987 (Rv1937)): 66.35 CPM and 34.04 CPM
log2 Fold change (gene MT1987 (Rv1937)): −2.295
Counts per million (CPM) WT_HC101A (gene MT1988 (Rv1938 cphB)): 24.12 CPM and 13.5 CPM
log2 Fold change (gene MT1988 (Rv1938 cphB)): −2.344
Counts per million (CPM) WT_HC101A (gene MT1989 (Rv1939)): 13.56 CPM and 7.389 CPM
log2 Fold change (gene MT1989 (Rv1939)): −2.045
Counts per million (CPM) WT_HC101A (gene MT2007): 22.23 CPM and 14.6 CPM
log2 Fold change (gene MT2007): −1.243
Counts per million (CPM) WT_HC101A (gene MT2016 (Rv1964)): 104.5 CPM and 57.78 CPM
log2 Fold change (gene MT2016 (Rv1964)): −1.754
Counts per million (CPM) WT_HC101A (gene MT2017): 43.41 CPM and 25.54 CPM
log2 Fold change (gene MT2017): −2.544
Counts per million (CPM) WT_HC101A (gene MT2018 (Rv1966 mce3)): 50.34 CPM and 26.88 CPM
log2 Fold change (gene MT2018 (Rv1966 mce3)): −2.558
Counts per million (CPM) WT_HC101A (gene MT2019 (Rv1967)): 52.89 CPM and 27.87 CPM
log2 Fold change (gene MT2019 (Rv1967)): −2.496
log2 Fold change (gene MT2020 Rv1968): −2.621
Counts per million (CPM) WT_HC101A (gene MT2021 (Rv1969)): 23.73 CPM and 17.45 CPM
log2 Fold change (gene MT2021 (Rv1969)): −1.799
Counts per million (CPM) WT_HC101A (gene MT2022 (Rv1970 lprM)): 37.39 CPM and 24.44 CPM
log2 Fold change (gene MT2022 (Rv1970 lprM)): −2.347
Counts per million (CPM) WT_HC101A (gene MT2023 (Rv1971)): 53.54 CPM and 31.19 CPM
log2 Fold change (gene MT2023 (Rv1971)): −2.293
Counts per million (CPM) WT_HC101A (gene MT2024 (Rv1972)): 16.15 CPM and 10.41 CPM
log2 Fold change (gene MT2024 (Rv1972)): −1.124
Counts per million (CPM) WT_HC101A (gene MT2042.1): 19.87 CPM and 29.96 CPM
log2 Fold change (gene MT2042.1): −1.522
Counts per million (CPM) WT_HC101A (gene MT2050 (Rv2004c)): 234 CPM and 227.9 CPM
log2 Fold change (gene MT2050 (Rv2004c)): −3.602
Counts per million (CPM) WT_HC101A (gene MT2051 (Rv2005c)): 149.3 CPM and 179.3 CPM
log2 Fold change (gene MT2051 (Rv2005c)): −3.859
Counts per million (CPM) WT_HC101A (gene MT2052 (Rv1996)): 177.9 CPM and 195.4 CPM
log2 Fold change (gene MT2052 (Rv1996)): −7.087
Counts per million (CPM) WT_HC101A (gene MT2052 (Rv2006 otsB)): 122.8 CPM and 137.5 CPM
log2 Fold change (gene MT2052 (Rv2006 otsB)): −2.478
Counts per million (CPM) WT_HC101A (gene MT2053 (Rv1997 ctpF)): 70.21 CPM and 92.04 CPM
log2 Fold change (gene MT2053 (Rv1997 ctpF)): 4.931
log2 Fold change (gene MT2053 (Rv2007c fdxA)): −3.149
Counts per million (CPM) WT_HC101A (gene MT2059 (Rv2003c)): 101.8 CPM and 119.9 CPM
log2 Fold change (gene MT2059 (Rv2003c)): −2.726
Counts per million (CPM) WT_HC101A (gene MT2079 (Rv2023c)): 11.24 CPM and 12.86 CPM
log2 Fold change (gene MT2079 (Rv2023c)): −1.5
Counts per million (CPM) WT_HC101A (gene MT2080): 28.31 CPM and 33.92 CPM
log2 Fold change (gene MT2080): −1.521
Counts per million (CPM) WT_HC101A (gene MT2086 (Rv2027c)): 56.35 CPM and 58.94 CPM
log2 Fold change (gene MT2086 (Rv2027c)): −2.22
log2 Fold change (gene MT2087 Rv2028c): −3.553
Counts per million (CPM) WT_HC101A (gene MT2088): 91.91 CPM and 170.4 CPM
log2 Fold change (gene MT2088): −4.873
log2 Fold change (gene MT2089 Rv2030c): −4.16
log2 Fold change (gene MT2090): −5.249
log2 Fold change (gene MT2091 Rv2032): −4.893
Counts per million (CPM) WT_HC101A (gene MT2156 (Rv2107 PE)): 20.07 CPM and 13.38 CPM
log2 Fold change (gene MT2156 (Rv2107 PE)): −1.59
Counts per million (CPM) WT_HC101A (gene MT2278 (Rv2220 glnAl)): 436.2 CPM and 385.9 CPM
log2 Fold change (gene MT2278 (Rv2220 glnAl)): −1.475
Counts per million (CPM) WT_HC101A (gene MT2304 (Rv2244 acpM)): 626.7 CPM and 987.4 CPM
log2 Fold change (gene MT2304 (Rv2244 acpM)): −2.163
log2 Fold change (gene MT2305 (Rv2245 kasA)): −1.728
Counts per million (CPM) WT_HC101A (gene MT2306): 581.8 CPM and 834.9 CPM
log2 Fold change (gene MT2306): −1.559
log2 Fold change (gene MT2307 (Rv2247 accD6)): −1.121
Counts per million (CPM) WT_HC101A (gene MT2329 (Rv2267c)): 24.25 CPM and 27 CPM
log2 Fold change (gene MT2329 (Rv2267c)): −1.234
